Test results from US6858580B2, “Mixtures of drug-oligomer conjugates comprising polyalkylene glycol, uses thereof, and methods of making same” (Nobex Corporation, priority 2001, dated 2005).

Assays:
[1] = Enzymatic stability: trypsin digest of calcitonin-oligomer conjugates; assay type: in vitro ADME; conditions: 10 mM phosphate buffer, control tube without enzyme, pH 7.4, Control tube (1 mM HCl, no enzyme)
Description: (§1) Compounds, supplied as lyophilized powders, are resuspended in 10 mM phosphate buffer pH 7.4 and then submitted for concentration determination by HPLC. The phosphate buffer is used to create a solution with a pH that is optimum for activity of each particular gut enzyme. Aliquots of the compound thus prepared are transferred to 1.7 mL microcentrifuge tubes and shaken in a 37° C. water bath for 15 minutes to allow compounds to equilibrate to temperature. After 15 minutes, 2 μL of the appropriate concentrated gut enzyme is added to each tube to achieve the final concentration desired. Chymotrypsin and trypsin are resuspended in 1 mM HCl. Also, as a control, compounds are treated with 2 μL of 1 mM HCl. Immediately following additions, 100 μL of sample is removed from the control tube and quenched with either 25 μL of chymotrypsin/trypsin quenching solution (1:1 1% TFA:Isopropanol). This sample will serve as T=0 min. A sampling procedure is repeated at various time intervals depending on the gut enzyme used. Chymotrypsin has 15, 30 and 60 minute samples. Trypsin has 30, 60, 120 and 180 minute samples. Once all points have been acquired, a final sample is removed from the control tube to make sure that observed degradation is not temperature or buffer related. The chymotrypsin and trypsin samples may be collected directly into HPLC vials. RP-BPLC (acetonitrile gradient) is used to determine AUC for each sample and % degradation is calculated based from the T=0 min control. The results are provided below in Tables 1 to 4.

Male CF-1 mice = assay: Serum calcium lowering after single oral dose in fasted mice; assay type: in vivo; conditions: single oral dose 2.0 μg/kg, average serum calcium
Description: Male CF-1 mice (Charles River, Raleigh, N.C.) weighing […] were housed in the Nobex vivarium in a light—(L:D cycle of 12:12, lights on at 0600 h), temperature—(21-23° C.), and humidity—(40-60% relative humidity) controlled room. Animals were permitted free access to laboratory chow (PMI Nutrition) and tap water. Mice were allowed to acclimate to housing conditions for 48-72 hours prior to the day of experiment.
Prior to dosing, mice were fasted overnight and water was provided ad libitum. Mice were randomly distributed into groups of five animals per time point and were administered a single oral dose of a PEG7-octyl-sCT, diconjugate (Octyl Di) according to the present invention or salmon calcitonin (sCT or Calcitonin) for comparison purposes. […]
At appropriate time points, mice were ether-anesthetized, the vena cavae exteriorized, and blood samples were obtained via a syringe fitted with a 25-gauge needle. […] Total serum calcium was determined for each animal using a calibrated Vitros DT60 II analyzer.
Serum calcium data were plotted and pharmacokinetic parameters determined via curve-fitting techniques using SigmaPlot software Version 4.1). Means and standard deviations (or standard errors) were calculated and plotted to determine effect differences among dosing groups.

[2] = Enzymatic stability: chymotrypsin digest of calcitonin-oligomer conjugates; assay type: in vitro ADME
Description: as §1, with “Chymotrypsin has 15, 30 and 60 minute samples.” left out, “The chymotrypsin and trypsin samples may be collected directly into HPLC vials.” left out, “The results are provided below in Tables 1 to 4.” left out

[3] = tested on: normal fasted beagle dogs; assay: Activity and inter-subject variability, oral liquid formulation, fasted beagle dogs; assay type: in vivo; conditions: 0.25 mg/kg oral liquid, fasted beagles, blood glucose
Description: As yet another example, a substantially monodispersed mixture of drug-oligomer conjugates preferably has an inter-subject variability that is less than the inter-subject variability of a polydispersed mixture of drug-oligomer conjugates having the same number average molecular weight as the substantially monodispersed mixture. As will be understood by those skilled in the art, the number average molecular weight of the substantially monodispersed mixture and the number average weight of the polydispersed mixture may be measured by various methods including, but not limited to, size exclusion chromatography. The inter-subject variability may be measured by various methods as will be understood by those skilled in the art. The inter-subject variability is preferably calculated as follows. The area under a dose response curve (AUC) (i.e., the area between the dose-response curve and a baseline value) is determined for each subject. The average AUC for all subjects is determined by summing the AUCs of each subject and dividing the sum by the number of subjects. The absolute value of the difference between the subject's AUC and the average AUC is then determined for each subject. The absolute values of the differences obtained are then summed to give a value that represents the inter-subject variability. Lower values represent lower inter-subject variabilities and higher values represent higher inter-subject variabilities.
An effective animal model for evaluating formulations uses normal fasted beagle dogs. These dogs are given 0.25 mg/kg of insulin conjugates to evaluate the efficacy of various formulations.
The protocol for dog experiments calls for a blood glucose measurement at time zero just before a drug is administered. The oral liquid dosage formulation is then squirted into the back of the dog's mouth. In each case, the dogs received 0.25 mg/kg of this solution. Blood is drawn at 15, 30, 60 and 120 minutes and glucose levels are measured and graphed. The lower the glucose levels, the better the activity of the insulin conjugate.

Row | Compound | activity (glucose lowering) versus polydispersed PEG7AVG-hexyl-insulin, monoconjugate [3] | inter-subject variability versus polydispersed PEG7AVG-hexyl-insulin, monoconjugate [3] | further results
1 | COCCOCCOCCOCCOCCOCCOCCOCCCCCCCC(=O)NCCCC[C@H](NC(=O)CNC(=O)[C@H](CC(C)C)NC(=O)[C@@H](NC(=O)[C@@H]1CSSC[C@H](N)C(=O)N[C@@H](CO)C(=O)N[C@@H](CC(N)=O)C(=O)N[C@@H](CC(C)C)C(=O)N[C@@H](CO)C(=O)N[C@@H]([C@@H](C)O)C(=O)N1)C(C)C)C(=O)N[C@@H](CC(C)C)C(=O)N[C@@H](CO)C(=O)N[C@@H](CCC(N)=O)C(=O)N[C@@H](CCC(=O)O)C(=O)N[C@@H](CC(C)C)C(=O)N[C@@H](Cc1c[nH]cn1)C(=O)N[C@@H](CCCCNC(=O)CCCCCCCOCCOCCOCCOCCOCCOCCOCCOC)C(=O)N[C@@H](CC(C)C)C(=O)N[C@@H](CCC(N)=O)C(=O)N[C@H](C(=O)N[C@@H](Cc1ccc(O)cc1)C(=O)N1CCC[C@H]1C(=O)N[C@@H](CCCNC(=N)N)C(=O)N[C@H](C(=O)N[C@@H](CC(N)=O)C(=O)N[C@H](C(=O)NCC(=O)N[C@@H](CO)C(=O)NCC(=O)N[C@H](C(=O)N1CCC[C@H]1C(N)=O)[C@@H](C)O)[C@@H](C)O)[C@@H](C)O)[C@@H](C)O | – | – | remaining at 1 h ([1]; time 60 min): 103%; remaining at 2 h ([1]; time 120 min): 106%; remaining at 3 h ([1]; time 180 min): 104%; % Baseline Calcium Drop at 2.0 μg/kg dose (Male CF-1 mice): 21.0%; remaining at 1 h ([2]; 10 mM phosphate buffer, control tube without enzyme, pH 7.4, Control tube (1 mM HCl, no enzyme), Non-Formulated, time 60 min): 104%
2 | CC(C)C[C@H](NC(=O)[C@H](CCCCN)NC(=O)CNC(=O)[C@H](CC(C)C)NC(=O)[C@@H](NC(=O)[C@@H]1CSSC[C@H](N)C(=O)N[C@@H](CO)C(=O)N[C@@H](CC(N)=O)C(=O)N[C@@H](CC(C)C)C(=O)N[C@@H](CO)C(=O)N[C@@H]([C@@H](C)O)C(=O)N1)C(C)C)C(=O)N[C@@H](CO)C(=O)N[C@@H](CCC(N)=O)C(=O)N[C@@H](CCC(=O)O)C(=O)N[C@@H](CC(C)C)C(=O)N[C@@H](Cc1c[nH]cn1)C(=O)N[C@@H](CCCCN)C(=O)N[C@@H](CC(C)C)C(=O)N[C@@H](CCC(N)=O)C(=O)N[C@H](C(=O)N[C@@H](Cc1ccc(O)cc1)C(=O)N1CCC[C@H]1C(=O)N[C@@H](CCCNC(=N)N)C(=O)N[C@H](C(=O)N[C@@H](CC(N)=O)C(=O)N[C@H](C(=O)NCC(=O)N[C@@H](CO)C(=O)NCC(=O)N[C@H](C(=O)N1CCC[C@H]1C(N)=O)[C@@H](C)O)[C@@H](C)O)[C@@H](C)O)[C@@H](C)O [Salmon Calcitonin, salmon calcitonin, reference compound] | – | – | remaining at 10 min ([2]; chymotrypsin (0.5 U/mL) in phosphate buffer, pH 7.4, Non-Formulated, time 10 min, pH 7.4, 37° C., read-out: % Remaining Following 0.5 U/mL Chymotrypsin Digest): 73%
3 | PEG4-hexyl-insulin, monoconjugate: non-polydispersed mixture of mPEG4-hexyl-insulin, B29 monoconjugates | higher activity | less inter-subject variability | –
4 | PEG7-hexyl-insulin, monoconjugate: human insulin monoconjugated at the B29 position with the activated oligomer of Example 18 | higher activity | less inter-subject variability | –
5 | PEG10-hexyl-insulin, monoconjugate: non-polydispersed mixture of mPEG10-hexyl-insulin, B29 monoconjugates | higher activity | less inter-subject variability | –
